The values below come from PMC9822769, “The Strange Case: The Unsymmetric Cisplatin-Based Pt(IV) Prodrug [Pt(CH3COO)Cl2(NH3)2(OH)] Exhibits Higher Cytotoxic Activity with respect to Its Symmetric Congeners due to Carrier-Mediated Cellular Uptake” (Bioinorganic Chemistry and Applications, 2022).

SMILES strings stand for the structures.

The subject of one series is NT2-D1. In words: Resazurin reduction cell viability assay, NT2-D1. The format is cell-based, human. The settings on record: 72 h of treatment; mean ± sd. The protocol:
(§1) The compounds under investigation were tested on a panel of commercial human cancer cell lines: ovarian endometrioid adenocarcinoma A2780 (ICLC HTL98008), its cisplatin-resistant variant A2780cisR (ECACC 93112517), colon carcinoma HCT 116 (ECACC 91091005), breast invasive ductal carcinoma MCF7 (ECACC 86012803), embryonal carcinoma NTERA-2 clone D1 (also known as NT2/D1, ICLC HTL97025), and lung adenocarcinoma A549 (ICLC HTL03001). Furthermore, a cell line derived from the pleural effusion of a patient with untreated malignant pleural mesothelioma (MPM) was added to the panel, namely, MM98 (sarcomatoid phenotype). Commercial cells were purchased from the European Collection of Authenticated Cell Cultures (ECACC, UK) or the Interlab Cell Line Collection (ICLC, Genoa, Italy), while the MM98 cell line was obtained from the Pathology Unit of the National Hospital of Alessandria (Italy).
(§2) The following media were used to grow the cells: RPMI 1640 (for A2780, A2780cisR, NT2/D1, and A549 cells), DMEM (for MCF7 cells), DMEM supplemented with nonessential amino acids (for MM98 cells), and McCoy's 5A (for HCT 116 cells). All media contained L-glutamine (2 mM) and were added with penicillin (100 IU·mL^−1), streptomycin (100 mg·L^−1), and 10% heat inactivated FBS. To maintain resistance in A2780cisR cells, cisplatin (1 μM) was added to the medium every two passages.
(§3) Continuous treatments (CT) were carried out at 37°C in a humidified chamber with 5% CO2. Cisplatin was dissolved in a 0.9% w/v NaCl aqueous solution and brought to pH = 3 with HCl (final stock concentration 1 mM). The Pt(IV) Complexes 1–3 were dissolved in milliQ water (final stock concentration 5 mM) and stored at −20°C. The stock concentration was confirmed with inductively coupled plasma-mass spectrometry (ICP-MS) measurements. The mother solutions were diluted in a complete medium to the required concentration.
To assess the growth inhibition of the compounds under investigation, a cell viability test (i.e., the resazurin reduction assay) was used. […] At the end of the treatment (72 h), viability was evaluated with 100 μg·mL^−1 resazurin (Acros Chemicals, France) in a fresh medium for 1 h at 37°C, and the amount of the reduced product, resorufin, was measured by fluorescence (excitation λ = 535 nm, emission λ = 595 nm) with a Tecan Infinite F200Pro plate reader (Tecan, Austria). In each experiment, cells were challenged with drug candidates at different concentrations, and the final data were calculated from at least three replicates of the same experiment performed in triplicate. The fluorescence of 8 wells containing a medium without cells was used as a blank. Fluorescence data were normalized to 100% cell viability for nontreated cells. […]

For another series, the system named is A2780cisR. The experiment in a line: Resazurin reduction cell viability assay, A2780cisR. The format is cell-based, human. The note with it: for resistance factor, RF = IC50 A2780cisR/IC50 A2780: 72 h, rounded to the nearest unity; for IC50: 72 h of treatment, cisplatin-resistant, mean ± sd. The protocol:
as §1, §2, §3
To assess the growth inhibition of the compounds under investigation, a cell viability test (i.e., the resazurin reduction assay) was used. In brief, 2–5 × 10^3 cells per well (depending on the cell line) were seeded in black sterile tissue culture-treated 96-well plates. At the end of the treatment (72 h), viability was evaluated with 100 μg·mL^−1 resazurin (Acros Chemicals, France) in a fresh medium for 1 h at 37°C, and the amount of the reduced product, resorufin, was measured by fluorescence (excitation λ = 535 nm, emission λ = 595 nm) with a Tecan Infinite F200Pro plate reader (Tecan, Austria). In each experiment, cells were challenged with drug candidates at different concentrations, and the final data were calculated from at least three replicates of the same experiment performed in triplicate. The fluorescence of 8 wells containing a medium without cells was used as a blank. Fluorescence data were normalized to 100% cell viability for nontreated cells. The half-inhibiting concentration (IC50), defined as the concentration of the drug that reduces cell viability by 50%, was obtained from the dose-response sigmoid using Origin Pro (version 8, Microcal Software Inc., Northampton, MA, USA).

Series [1] can be described thus: Stability in cell culture medium (HPLC-MS). The class given is physicochemical. The note with it: 72 h, 37°C, dark, RPMI 1640 + 10% FBS, 100 μM. The protocol:
The stability in the solution of Complexes 1–3 (100 μM) was studied by aging the compounds for 72 h at 37°C in the dark in the same cell culture medium employed for the A2780 cell line (i.e., RPMI 1640 medium added with 10% fetal bovine serum, FBS). The area of the chromatographic peaks of the Pt complexes was monitored in HPLC-MS, using a 70 : 30 mixture of 15 mM aqueous HCOOH and CH3OH as the mobile phase (see Section 2.3, settings i), for further instrumental details). ESI mass spectra, recorded using cone and capillary voltages of +30 V (positive ion mode) and 2.70 kV, were used to confirm the identity of the species.

As a reminder, the IC50 is the point on the concentration scale where inhibition reaches its midpoint. Read a low IC50 as higher potency. In the series with NT2-D1, `N.N.[Cl][Pt][Cl]` [Cisplatin, (SP-4-2)-diamminedichloridoplatinum(II)] registered an IC50 of 100 ± 40 nM. In the series on A2780cisR, the “resistance factor, RF = IC50 A2780cisR/IC50 A2780” value (“resistance factor” below) was 13 and the IC50 stood at 6220 ± 1020 nM.
`N.N.[OH][Pt]([OH])([Cl])[Cl]` [Complex 1, (OC-6-33)-diamminedichloridodihydroxidoplatinum(IV)]: the IC50 in the series on NT2-D1 amounted to 1440 ± 160 nM. Moreover, the “remaining intact, % of the original HPLC peak” value in series [1] is over 95%. In the series with A2780cisR, the “resistance factor” value is recorded as 14 and the IC50 stood at 52100 ± 3480 nM.
Regarding `CC(=O)[O][Pt]([OH])([Cl])[Cl].N.N` [Complex 2, (OC-6-44)-acetatodiamminedichloridohydroxidoplatinum(IV)], the IC50 with NT2-D1 is 210 ± 80 nM. Moreover, the partial hydrolysis result in series [1] is reported as “approximately 40%”. Also, in the series on A2780cisR, the “resistance factor” value turned out to be 6 and the IC50 is 1020 ± 680 nM.
Regarding `CC(=O)[O][Pt]([NH2])([NH2])([Cl])([Cl])[O]C(C)=O` [Complex 3, (OC-6-33)-diamminedichloridodiacetatoplatinum(IV)], the IC50 was 4300 ± 1130 nM in the series with NT2-D1 and over 100000 nM with A2780cisR. Further, the “remaining intact, % of the original HPLC peak” value in series [1] is recorded as over 85%.
